Values quoted from earlier work as cited in patent US9809617B2, “Crystal form of regadenoson and preparation method thereof” (Shanghai Ziyuan Pharmaceutical Co., Ltd., priority 2015, dated 2017).

conditions: heat / humidity, as described for U.S. Pat. No. 7,732,595

Row | SMILES | stability of crystal form (in words)
1 | CCNC(=O)c1cnn(-c2nc(N)c3ncn(C4O[C@H](CO)[C@@H](O)[C@H]4O)c3n2)c1 (stereo partly drawn) [Crystal form A] | stable under heating under relative humidity stress conditions up to its melting point
2 | CCNC(=O)c1cnn(-c2nc(N)c3ncn(C4O[C@H](CO)[C@@H](O)[C@H]4O)c3n2)c1 (stereo partly drawn) [amorphous form of regadenoson] | unstable in atmospheric moisture
3 | CCNC(=O)c1cnn(-c2nc(N)c3ncn(C4O[C@H](CO)[C@@H](O)[C@H]4O)c3n2)c1 (stereo partly drawn) [crystal form C] | unstable after losing crystal water under a high temperature
